The numbers were not newly measured in US20040167415A1, “Method and system for prevention of radiocontrast nephropathy” (PLC Systems Inc., priority 2003, published 2004), which cites them from elsewhere.

Each structure is given as a SMILES string.

For series [1] the following is noted: 70 kg adult patient; according to the manufacturer Nycomed Amersham.
The conditions of series [2]: in 12 hours; healthy people; Edelson et al, J Pharm Sci 1984.

Regarding `CC(=O)N(CC(O)CO)c1c(I)c(C(=O)NCC(O)CO)c(I)c(C(=O)NCC(O)CO)c1I` (centres unmarked) [iohexol], the “total volume of distribution” value in series [1] is recorded as “approximately 18 liters”. Further, the “contrast eliminated from the body in urine by kidneys” value in series [2] was 90%.
